The IC20 is the concentration needed for an effect of 20%.

The values below come from US20130244896A1, “IN VITRO METHOD FOR PREDICTING WHETHER A COMPOUND IS GENOTOXIC IN VIVO” (priority 2012, published 2013).

Data set [1] deals with microRNA 1262, microRNA 98 and microRNA 30c-1.
For data set [2] the following is noted: GTX/NGTX class as in Tables 3-7; cited from earlier work.
The subject of another data set is HepG2 cells. The data set is described as follows: IC20-72 hours value used as exposure dose in HepG2 cells. The class given is cell-based, human. The method, then:
All measurements were performed in triplicate.

A further data set has as its system bacteria. Particulars: cited from earlier work.
[3] abbreviates: number of the three microRNAs predicting correctly.
[4] abbreviates: HepG2 cells exposed at Table 1 dose.
Setting [5] is: correct predictions of three independent experiments.
Setting [6] is: Homo sapiens, HepG2 cells, IC20-72 hours, read-out: Dose (IC20-72 hours value).
Setting [7] is: HepG2 cells, IC20-72 hours, read-out: Dose (IC20-72 hours value).

Like-named read-outs stand apart in the source and are kept apart here.

As to `Clc1cc2c(cc1Cl)Oc1cc(Cl)c(Cl)cc1O2` [2,3,7,8-tetrachloro dibenzo-p-dioxin], the “Aggregate result, correct” value in [1] (setting [3]) is on record as 3/3. Moreover, the “Score / correctness of miRNA prediction, 98 (number of correct predictions of three independent experiments)” value in the data set with hsa-miR-98 (setting [4]) is recorded as “(3/3)”. Further, the GTX in vivo entry in [2] is on record as “NGTX”. In the data set on hsa-miR-891b (setting [5]), the “correctness of microRNA prediction, 891b” value is given as “(2/3)”. The “correctness of microRNA prediction, 302b” value with hsa-miR-302b (setting [5]) is reported as “(2/3)”. Further, the “correctness of microRNA prediction, 888*” value with hsa-miR-888* (setting [5]) was “(1/3)”. The “correctness of microRNA prediction, 502-3p” value in the data set on hsa-miR-502-3p (setting [5]) was “(2/3)”. For the same molecule, in the data set with hsa-miR-1262 (setting [4]), the “Score / correctness of miRNA prediction, 1262 (number of correct predictions of three independent experiments)” value is on record as “(3/3)”. The “correctness of microRNA prediction, 885-3p” value in the data set with hsa-miR-885-3p (setting [5]) is “(3/3)”. In addition, the IC20 with HepG2 cells (setting [6]) was 0.01 µM. Further, in the data set on hsa-miR-1246 (setting [5]), the “correctness of microRNA prediction, 1246” value is given as “(3/3)”. In addition, in the data set with hsa-miR-1229 (setting [5]), the “correctness of microRNA prediction, 1229” value was “(2/3)”. For the same molecule, the “Score / correctness of miRNA prediction, 30c-1 (number of correct predictions of three independent experiments)” value in the data set on hsa-miR-30c-1* (setting [4]) is “(2/3)”. The Ames test result in the data set on bacteria was “−”.
Regarding `Oc1cccc2cccnc12` [8-quinolinol], the “Aggregate result, result” value in data set [1] is “NGTX”. The “Aggregate result, correct” value in data set [1] (human) was 2/3. Further, the “Prediction, miRNA 98” value in the data set with hsa-miR-98 is recorded as “NGTX (key: GTX: hsa-miR-98: Prediction if Expression is above Reference value; NGTX: hsa-miR-98: Prediction if Expression is below Reference value)”. In the data set on hsa-miR-98 (human), the “Score / correctness of miRNA prediction, 98 (number of correct predictions of three independent experiments)” value is recorded as “(3/3)”. Besides, the “correctness of microRNA prediction, 891b” value with hsa-miR-891b (human) is “(3/3)”. In the data set on hsa-miR-302b (human), the “correctness of microRNA prediction, 302b” value is on record as “(1/3)”. In addition, in the data set on hsa-miR-888* (human), the “correctness of microRNA prediction, 888*” value is “(3/3)”. The “correctness of microRNA prediction, 502-3p” value in the data set with hsa-miR-502-3p (human) is given as “(2/3)”. Further, in the data set on hsa-miR-885-3p (human), the “correctness of microRNA prediction, 885-3p” value is given as “(1/3)”. The IC20 in the data set with HepG2 cells (Homo sapiens, HepG2, read-out: Dose (IC20-72 hours value)) turned out to be 15 µM. Besides, the “correctness of microRNA prediction, 1246” value in the data set on hsa-miR-1246 (human) is “(0/3)”. In addition, the “correctness of microRNA prediction, 1229” value with hsa-miR-1229 (human) was “(3/3)”. Besides, in the data set on hsa-miR-30c-1*, the “Prediction, miRNA 30c-1” value is recorded as “GTX (key: GTX: hsa-miR-30c-1*: Prediction if Expression is above Reference value; NGTX: hsa-miR-30c-1*: Prediction if Expression is below Reference value)”. Moreover, the “Score / correctness of miRNA prediction, 30c-1 (number of correct predictions of three independent experiments)” value in the data set on hsa-miR-30c-1* (human) is reported as “(1/3)”. The Ames test result in the data set with bacteria is “+”.
Take `C[C@]12CC[C@@H]3c4ccc(O)cc4CC[C@H]3[C@@H]1CC[C@@H]2O` [17beta-estradiol, 17 beta-estradiol]: the “Aggregate result, correct” value in [1] (setting [3]) is 3/3. The GTX in vivo entry in data set [2] is recorded as “NGTX”. For the same molecule, the concentration for an effect of 20% (IC20) in the data set on HepG2 cells (setting [7]) was 30 µM.
As to `CC1(C)S[C@@H]2[C@H](NC(=O)[C@H](N)c3ccccc3)C(=O)N2[C@H]1C(=O)O` [Ampicillin trihydrate], in data set [1] (setting [3]), the “Aggregate result, correct” value is recorded as 3/3. Moreover, the “Score / correctness of miRNA prediction, 98 (number of correct predictions of three independent experiments)” value in the data set with hsa-miR-98 (setting [4]) was “(3/3)”. In the data set on hsa-miR-891b (setting [5]), the “correctness of microRNA prediction, 891b” value is on record as “(2/3)”. In addition, the “correctness of microRNA prediction, 302b” value with hsa-miR-302b (setting [5]) is “(2/3)”. In addition, in the data set with hsa-miR-888* (setting [5]), the “correctness of microRNA prediction, 888*” value was “(3/3)”. In the data set on hsa-miR-502-3p (setting [5]), the “correctness of microRNA prediction, 502-3p” value is on record as “(3/3)”. Moreover, the “Score / correctness of miRNA prediction, 1262 (number of correct predictions of three independent experiments)” value with hsa-miR-1262 (setting [4]) is reported as “(2/3)”. The “correctness of microRNA prediction, 885-3p” value in the data set on hsa-miR-885-3p (setting [5]) is reported as “(3/3)”. Further, the IC20 with HepG2 cells (setting [6]) stood at 250 µM. Further, the “correctness of microRNA prediction, 1246” value in the data set on hsa-miR-1246 (setting [5]) was “(1/3)”. In addition, the “correctness of microRNA prediction, 1229” value in the data set on hsa-miR-1229 (setting [5]) is given as “(3/3)”. Also, the “Score / correctness of miRNA prediction, 30c-1 (number of correct predictions of three independent experiments)” value in the data set with hsa-miR-30c-1* (setting [4]) is given as “(3/3)”.
Regarding `c1ccc2c(c1)cc1ccc3cccc4ccc2c1c34` [Benzo[a]pyere], the “Aggregate result, correct” value in data set [1] (setting [3]) is reported as 3/3. Moreover, the “Score / correctness of miRNA prediction, 98 (number of correct predictions of three independent experiments)” value with hsa-miR-98 (setting [4]) is reported as “(2/3)”. In the data set with hsa-miR-891b (setting [5]), the “correctness of microRNA prediction, 891b” value is recorded as “(3/3)”. In addition, in the data set with hsa-miR-302b (setting [5]), the “correctness of microRNA prediction, 302b” value was “(2/3)”. The “correctness of microRNA prediction, 888*” value with hsa-miR-888* (setting [5]) is reported as “(2/3)”. Besides, the “correctness of microRNA prediction, 502-3p” value in the data set on hsa-miR-502-3p (setting [5]) is “(2/3)”. Moreover, the “Score / correctness of miRNA prediction, 1262 (number of correct predictions of three independent experiments)” value in the data set on hsa-miR-1262 (setting [4]) is “(2/3)”. The “correctness of microRNA prediction, 885-3p” value with hsa-miR-885-3p (setting [5]) is on record as “(2/3)”. In addition, the IC20 in the data set on HepG2 cells (setting [7]) amounted to 2 µM. The “correctness of microRNA prediction, 1246” value in the data set on hsa-miR-1246 (setting [5]) is “(3/3)”. In addition, the “correctness of microRNA prediction, 1229” value in the data set with hsa-miR-1229 (setting [5]) is “(3/3)”. In the data set with hsa-miR-30c-1* (setting [4]), the “Score / correctness of miRNA prediction, 30c-1 (number of correct predictions of three independent experiments)” value is reported as “(2/3)”.
For the molecule `N.N.[Cl][Pt][Cl]` [Cisplatin], the “Aggregate result, correct” value in [1] (setting [3]) is listed as 3/3. In addition, the GTX in vivo result in data set [2] was “GTX”. For the same molecule, the IC20 in the data set with HepG2 cells (setting [7]) amounted to 7 µM.
Regarding `O=c1c(O)c(-c2ccc(O)c(O)c2)oc2cc(O)cc(O)c12` [Quercetin], the “Aggregate result, correct” value in data set [1] (setting [3]) was 2/3. Moreover, the “Score / correctness of miRNA prediction, 98 (number of correct predictions of three independent experiments)” value with hsa-miR-98 (setting [4]) was “(1/3)”. The GTX in vivo result in data set [2] is listed as “NGTX”. In addition, the “correctness of microRNA prediction, 891b” value in the data set with hsa-miR-891b (setting [5]) is “(2/3)”. The “correctness of microRNA prediction, 302b” value in the data set on hsa-miR-302b (setting [5]) is reported as “(1/3)”. In addition, in the data set with hsa-miR-888* (setting [5]), the “correctness of microRNA prediction, 888*” value is recorded as “(1/3)”. The “correctness of microRNA prediction, 502-3p” value in the data set on hsa-miR-502-3p (setting [5]) was “(1/3)”. In addition, the “Score / correctness of miRNA prediction, 1262 (number of correct predictions of three independent experiments)” value with hsa-miR-1262 (setting [4]) is reported as “(3/3)”. In the data set on hsa-miR-885-3p (setting [5]), the “correctness of microRNA prediction, 885-3p” value is listed as “(1/3)”. In the data set on HepG2 cells (setting [6]), the IC20 is 50 µM. In the data set with hsa-miR-1246 (setting [5]), the “correctness of microRNA prediction, 1246” value was “(2/3)”. Also, the “correctness of microRNA prediction, 1229” value in the data set on hsa-miR-1229 (setting [5]) is “(1/3)”. Further, in the data set on hsa-miR-30c-1* (setting [4]), the “Score / correctness of miRNA prediction, 30c-1 (number of correct predictions of three independent experiments)” value is “(3/3)”.
With Aflatoxin B1, in data set [1], the “Aggregate result, correct” value is 3/3. Further, the “Score / correctness of miRNA prediction, 98 (number of correct predictions of three independent experiments)” value with hsa-miR-98 is recorded as “(2/3)”. Further, the “correctness of microRNA prediction, 891b” value in the data set on hsa-miR-891b is reported as “(2/3)”. In the data set with hsa-miR-302b, the “correctness of microRNA prediction, 302b” value is “(2/3)”. The “correctness of microRNA prediction, 888*” value in the data set with hsa-miR-888* was “(3/3)”. Also, in the data set on hsa-miR-502-3p, the “correctness of microRNA prediction, 502-3p” value was “(2/3)”. For the same molecule, in the data set on hsa-miR-1262, the “Score / correctness of miRNA prediction, 1262 (number of correct predictions of three independent experiments)” value is on record as “(2/3)”. Besides, the “correctness of microRNA prediction, 885-3p” value with hsa-miR-885-3p was “(1/3)”. Also, the IC20 in the data set on HepG2 cells (read-out: Dose (IC20-72 hours value)) was 1 µM. In the data set on hsa-miR-1246, the “correctness of microRNA prediction, 1246” value was “(1/3)”. Further, in the data set on hsa-miR-1229, the “correctness of microRNA prediction, 1229” value is on record as “(1/3)”. For the same molecule, the “Score / correctness of miRNA prediction, 30c-1 (number of correct predictions of three independent experiments)” value in the data set on hsa-miR-30c-1* is given as “(2/3)”.
